# Measured values published in patent publication US7955596B2 (priority 2003, dated 2011).
# System: B. anthracis strain 34F2ΔluxS
# Assay type: cell-based
compound,measurement,setting,value
"CCCCC1=C(Br)/C(=C/Br)OC1=O [furanone 1, (5Z)-4-bromo-5-(bromomethylene)-3-butyl-2(5H)-furanone]",Growth of the 34F2ΔluxS strain (OD600),,dramatically inhibited
same,Growth inhibitory effect for 34F2ΔluxS relative to wild-type 34F2,"20 μg/ml, 30 hrs",prolonged
